Active and inactive are the calls of the source. The rule behind the calls is not given here.

The values that follow come from ChEMBL document CHEMBL3244288, “Antimalarials. 11. Synthesis of 3- and 5-aminoquinolines as potential antimalarials” (J Med Chem, 1979).

Assay type in all cases: functional, organism-based
Experiment [1] deals with Plasmodium cynomolgi. Description: Antimalarial activity against sporozoite form of Plasmodium cynomolgi infected in juvenile rhesus monkey assessed as radical curative effect.
In the next experiment the test system is Leishmania donovani. Briefly: Antileishmanial activity against Leishmania donovani infected in golden hamster administered for 8 days.
The next experiment relates to Plasmodium berghei. Description: Antimalarial activity against Plasmodium berghei infected in mouse assessed as increase in mean survival time at 640 mg/kg, sc. Further details: dose 640 mg/kg.
Experiment [2] deals with Plasmodium cynomolgi. Description: Antimalarial activity against sporozoite form of Plasmodium cynomolgi infected in juvenile rhesus monkey assessed as radical curative effect at 10 mg/kg, administered 6 doses. Further details: dose 10 mg/kg.

Take `COc1cc(NC(C)CCCN)c2ncccc2c1` (configuration not stated): the result with Plasmodium cynomolgi [1] was Active.
With `COc1ccc2ncc(NC(C)CCCN)c(C)c2c1` (configuration not stated), the result with Leishmania donovani and in the experiment with Plasmodium berghei was inactive.
Turning to `CCN(CC)CCNc1ccc(OC)c2ncccc12`, the outcome in the experiment on Leishmania donovani, in the experiment with Plasmodium berghei and in the experiment with Plasmodium cynomolgi [1] was inactive.
Turning to `COc1cc(NC(C)CCCN)c2nccc(C)c2c1` (configuration not stated), in the experiment on Plasmodium cynomolgi [1], the outcome was Active.
As for `COc1cc2cc(NC(C)CCCN)cnc2cc1OC` (configuration not stated), the result in the experiment with Leishmania donovani and in the experiment with Plasmodium berghei was inactive.
As to `COc1cc2ncc(NC(C)CCCN)c(C)c2cc1OC` (configuration not stated), the outcome in the experiment with Leishmania donovani and in the experiment with Plasmodium berghei was inactive.
As for `COc1ccc(NC(C)CCCN)c2cccnc12` (configuration not stated), the result in the experiment on Leishmania donovani and in the experiment on Plasmodium berghei was inactive. Also, the outcome in the experiment with Plasmodium cynomolgi [2] was Active.
As to `CCN(CC)CCCC(C)Nc1ccc(OC)c2ncccc12` (configuration not stated), the result with Leishmania donovani, in the experiment on Plasmodium berghei and in the experiment with Plasmodium cynomolgi [1] was inactive.
